Broadly, the IC50 is the concentration needed to halve the response being measured.

Active and inactive are the calls of the source. How the calls were made is not given here.

The test system of the experiment is IEC-6 rat intestinal epithelial cells, cytotoxicity, luminescence. In words: rat intestinal epithelial cell viability loss – luminescence, dose response, cytotoxicity control for KLF5 inhibitor project, late-stage follow-up (AID 2749).
Consider `Cc1ccc2nc(NC(=O)CCCc3nc4ccccc4s3)sc2c1`, for which the IC50 is > 39.8 µM (inactive). The figure for `CC(C)(C)c1ccc(C(=O)O/N=C(\N)c2ccccn2)cc1` is 25.5 µM (inactive); for `CCCc1ccc(-c2ccc(/C=C/C(=O)O)cc2)nc1` it is > 39.8 µM (inactive). For the molecule `CN1CCN(c2ccc(-c3ccc4ccccc4n3)cc2)CC1`, the IC50 was 16.2 µM (inactive). As for `O=C(NCCc1ccccc1F)c1ccc2c(c1)OCCO2`, the figure is > 39.8 µM (inactive); as for `c1ccc(-c2ccc(-c3nc(-c4ccccn4)no3)cc2)cc1`, 14.2 µM (inactive). In the case of `COC(=O)c1ccc2nc(Nc3nc4ccc(F)cc4s3)sc2c1`, the IC50 is > 39.8 µM (inactive).

Consider `CCCc1ccc(C(=O)O/N=C(\N)c2ccccn2)cc1`, for which the IC50 is > 39.8 µM (inactive). The figure for `CCOC(=O)c1sc(NC(=O)c2cc3c(s2)CCC(C)C3)nc1C` (centres undefined) is > 39.8 µM (inactive); for `COc1cccc(C=NNc2ccc(C(=O)O)cc2)c1O` it is > 39.8 µM (inactive); for `O=C(NCCc1ccccc1)c1ccc2c(c1)OCCCO2` it is > 39.8 µM (inactive).

As to `Cc1cc(C(=O)CN2C(=O)c3ccccc3S2(=O)=O)c(C)n1CC1CCCO1` (centres undefined), the IC50 was > 39.8 µM (inactive).

For `COc1ccc(OCc2cccc(C(=O)Nn3cc([N+](=O)[O-])cn3)c2)cc1`, the IC50 was > 39.8 µM (inactive). As for `CCOC(=O)c1sc(NC(=O)c2ccc3ncsc3c2)nc1C`, the figure is > 39.8 µM (inactive).

For `CC(C)(C)C(=O)Nc1cc2nn(-c3ccccc3)nc2cc1Cl`, the IC50 is > 39.8 µM (inactive). `CC(C)(C)c1ccc(-c2noc(CCC(=O)Nc3cccnc3)n2)cc1`: the IC50 was > 39.8 µM (inactive). The figure for `CN(C(=O)COC(=O)/C=C/c1cccc([N+](=O)[O-])c1)C1CCS(=O)(=O)C1` (centres undefined) is 34.8 µM (inactive); for `COc1ccc(C(=O)Nc2ccccc2C(=O)NN=Cc2ccc(O)c(OC)c2)cc1` it is > 39.8 µM (inactive); for `CCOC(=O)c1sc(NC(=O)c2cc3ccccc3o2)nc1C` it is > 39.8 µM (inactive).

Values taken from PubChem BioAssay AID2749 (The Scripps Research Institute Molecular Screening Center, 2010).
